US10428080B2, “TBK/IKK inhibitor compounds and uses thereof” (Merck Patent GmbH, priority 2015, dated 2019)
pIC50: −log10 of the molar value. Where a name gives a salt, the structure may show the parent alone. Read-outs that look alike come from different tables or passages of the source.

What was measured:
TBK1 = molecular target: T1, TBK1 (Homo sapiens, UniProt Q9UHD2); experiment: TBK Biochemical Assay; settings: read-out: TBK1 IC50
T1 sequence (Q9UHD2 1-729): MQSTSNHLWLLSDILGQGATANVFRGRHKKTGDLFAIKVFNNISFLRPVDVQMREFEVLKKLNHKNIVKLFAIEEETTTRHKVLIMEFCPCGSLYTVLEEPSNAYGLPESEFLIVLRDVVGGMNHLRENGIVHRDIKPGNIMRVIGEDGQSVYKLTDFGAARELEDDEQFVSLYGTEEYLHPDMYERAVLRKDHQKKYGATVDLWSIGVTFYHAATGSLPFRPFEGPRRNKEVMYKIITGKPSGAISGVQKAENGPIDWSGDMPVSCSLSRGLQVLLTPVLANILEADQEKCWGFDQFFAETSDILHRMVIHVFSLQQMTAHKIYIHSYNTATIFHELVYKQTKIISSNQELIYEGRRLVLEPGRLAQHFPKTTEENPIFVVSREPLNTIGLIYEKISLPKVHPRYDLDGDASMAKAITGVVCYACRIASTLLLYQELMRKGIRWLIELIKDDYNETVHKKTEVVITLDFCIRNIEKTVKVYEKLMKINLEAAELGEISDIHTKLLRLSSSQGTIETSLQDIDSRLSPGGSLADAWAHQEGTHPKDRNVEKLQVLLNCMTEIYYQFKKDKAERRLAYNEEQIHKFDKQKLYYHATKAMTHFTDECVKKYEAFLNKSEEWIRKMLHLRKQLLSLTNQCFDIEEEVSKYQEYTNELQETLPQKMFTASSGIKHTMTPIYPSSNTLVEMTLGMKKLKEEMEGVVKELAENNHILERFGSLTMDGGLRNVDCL
In short: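 TBK1 enzyme and substrate incubated with compounds (10-point 1:4 dilution, top 30 uM final, 1% DMSO) for 90 min at 25° C, then stopped. Substrate/product peaks read by microfluidic mobility-shift (Caliper LabChip); 10 uM staurosporine as full-inhibition control.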

[1] = test system: phosphorylation of the IRF-3 protein in MDA-MB-468 cells; experiment: pIRF3 immunocytochemistry cell based assay; settings: Homo sapiens
Procedure: The purpose of the pIRF3 immunocytochemistry cell based assay was to identify small molecules which modulates TBK/IKKe kinase activity through on target substrate phosphorylation of the IRF-3 protein. On the first day of the experiment, MDA-MB-468 cells were plated in 384 well, black, clear-bottom, Poly D lysine coated plates at a density of 5000 cells/well in 45 ul of complete DMEM and allowed to adhere overnight. On the second day compounds were added to cells at a starting concentration of 10 uM with a serial dilution of 3-fold for a total of 10 points. The cells were incubated for 1 hr at 37° C. Cells were then stimulated with Poly(I:C) at a final concentration of 10 ug/ml, and were incubated for 2 hr at 37° C. Following the incubation, media was removed from the wells and the cells were fixed with 4% PFA for 15 min at RT. Cells were washed at least 3 times with PBS, and then permeabilized with ice-cold methanol for 10 min at RT. The washing step was repeated and the cells were then blocked using 10% goat serum/1% BSA, made up in PBS and allowed to incubate at RT for 1 hr. The cells were washed again and then treated with an anti-pIRF3 antibody at 4° C. overnight (1:250 dilution of Abcam ab76493 in PBS containing 1% BSA). On the third day the primary antibody was washed off and pIRF3 was detected by adding the secondary antibody conjugated to AlexaFluor488 (1:200 dilution of secondary antibody in PBS containing 1% BSA) for 1 hr at RT. Cells were washed and then counterstained with PI/RNase staining buffer for 15 min at RT and read on the Acumen Explorer laser scanning cytometer. The percentage of phosphorylation of the IRF-3 protein was calculated using the following algorithm, a modified version of the mean half width intensity (pIRF3 staining)/(PI staining or # of cells)×100%). IC50 curves were generated using the Genedata software.

IKKε = molecular target: T2, IKKε (Homo sapiens, UniProt Q14164); experiment: IKKe Biochemical Assay; settings: read-out: IKKε IC50
T2 sequence (Q14164 1-716): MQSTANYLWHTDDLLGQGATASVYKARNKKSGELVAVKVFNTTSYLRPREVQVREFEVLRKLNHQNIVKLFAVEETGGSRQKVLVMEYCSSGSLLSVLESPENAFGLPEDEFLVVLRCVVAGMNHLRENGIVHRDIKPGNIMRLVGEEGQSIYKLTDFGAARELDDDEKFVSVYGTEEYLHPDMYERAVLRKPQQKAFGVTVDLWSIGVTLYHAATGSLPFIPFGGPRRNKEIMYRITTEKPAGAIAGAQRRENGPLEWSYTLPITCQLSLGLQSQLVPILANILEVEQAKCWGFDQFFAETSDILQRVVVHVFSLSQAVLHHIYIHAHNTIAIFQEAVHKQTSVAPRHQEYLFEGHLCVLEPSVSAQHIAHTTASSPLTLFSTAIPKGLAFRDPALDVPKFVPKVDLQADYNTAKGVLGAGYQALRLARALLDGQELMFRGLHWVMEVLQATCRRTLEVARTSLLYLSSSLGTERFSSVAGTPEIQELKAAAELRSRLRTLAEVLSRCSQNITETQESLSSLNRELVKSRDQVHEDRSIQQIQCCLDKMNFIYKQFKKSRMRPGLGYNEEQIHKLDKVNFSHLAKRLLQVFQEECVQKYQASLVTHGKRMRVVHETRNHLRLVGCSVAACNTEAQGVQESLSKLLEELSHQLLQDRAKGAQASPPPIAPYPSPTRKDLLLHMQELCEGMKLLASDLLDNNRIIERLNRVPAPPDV
In short: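 Recombinant IKKε and substrate were incubated with compound (10-point 1:4 series, top 30 uM final, 1% DMSO) for 90 min at 25° C, then stopped. Substrate-to-product conversion was read by LabChip microfluidic mobility shift; 10 uM staurosporine served as full-inhibition wells.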

[2] = MDA-MB-468 cells, Poly(I:C) stimulation, read-out: pIRF3 IC50

pIC50 (TBK1)	pIC50 [1, 2]	pIC50 (IKKε)	Structure (SMILES)	pIC50 ([1]; MDA-MB-468, read-out: pIRF3 IC50)
6.00 to 7.00	5.30 to 6.00	5.30 to 6.00	COc1cc(C(=O)N(C)C)cnc1-c1cc2ncc(C)c(-c3ccc(NC4CCOCC4)c(C#N)n3)c2o1 [Compound 322, 6-(7-(6-cyano-5-(tetrahydro-2H-pyran-4-ylamino)pyridin-2-yl)-6-methylfuro[3,2-b]pyridin-2-yl)-5-methoxy-N,N-dimethylnicotinamide]	–
6.00 to 7.00	> 7.00	–	COc1cc(C(=O)N(C)C)cnc1-c1cc2ncc(OC)c(-c3ccc(OC4CCOCC4)c(C#N)c3)c2o1 [Compound 339, 6-[7-[3-cyano-4-(oxan-4-yloxy)phenyl]-6-methoxyfuro[3,2-b]pyridin-2-yl]-5-methoxy-N,N-dimethylpyridine-3-carboxamide]	–
5.30 to 6.00	–	5.30 to 6.00	COc1cc(C(=O)N(C)C)cnc1-c1cc2ncc(Cl)c(-c3ccc(OC4CCOCC4)c(C#N)c3)c2o1 [Compound 336, 6-[6-chloro-7-[3-cyano-4-(oxan-4-yloxy)phenyl]furo[3,2-b]pyridin-2-yl]-5-methoxy-N,N-dimethylpyridine-3-carboxamide hydrochloride]	–
6.00 to 7.00	–	6.00 to 7.00	COc1cc(C(=O)N(C)C)ccc1-c1cc2ncc(Cl)c(-c3ccc(NC4CCOCC4)c(C#N)c3)c2o1 [Compound 266, 4-(6-chloro-7-(3-cyano-4-(tetrahydro-2H-pyran-4-ylamino)phenyl)furo[3,2-b]pyridin-2-yl)-3-methoxy-N,N-dimethylbenzamide]	–
< 5.30	–	< 5.30	COc1cc(C(=O)N(C)C)cnc1-c1cc2ncc(C3CC3)c(-c3ccc(OC4CCOCC4)c(C#N)n3)c2o1 [Compound 357, 6-[7-[6-cyano-5-(oxan-4-yloxy)pyridin-2-yl]-6-cyclopropylfuro[3,2-b]pyridin-2-yl]-5-methoxy-N,N-dimethylpyridine-3-carboxamide hydrochloride]	–

More lines, now with the values behind:

Structure (SMILES)	pIC50 (TBK1)	pIC50 [1, 2]	pIC50 (IKKε)	pIC50 ([1]; MDA-MB-468, read-out: pIRF3 IC50)
COc1cc(C(=O)NC[C@@H](O)CO)ccc1-c1cc2nccc(-c3ccc(OC4CCOCC4)c(C#N)c3)c2o1 [Compound 49, 4-{7-[3-Cyano-4-(tetrahydro-pyran-4-yloxy)-phenyl]-furo[3,2-b]pyridin-2-yl}-N—((R)-2,3-dihydroxy-propyl)-3-methoxy-benzamide]	> 7.00	6.00 to 7.00	> 7.00	–
COc1cc(C(=O)NC2(C)CCCN(C)C2)ccc1-c1cc2nccc(-c3ccc(OC4CCOCC4)c(C#N)c3)c2o1 (stereo not shown) [Compound 367, 4-[7-[3-cyano-4-(oxan-4-yloxy)phenyl]furo[3,2-b]pyridin-2-yl]-N-(1,3-dimethylpiperidin-3-yl)-3-methoxybenzamide]	> 7.00	> 7.00	> 7.00	–
COc1cc(-c2cc3nccc(-c4ccc(OC5CCOCC5)c(C#N)c4)c3o2)ccc1C(=O)N(C)C [Compound 470, 4-[7-[3-cyano-4-(oxan-4-yloxy)phenyl]furo[3,2-b]pyridin-2-yl]-2-methoxy-N,N-dimethylbenzamide]	> 7.00	–	> 7.00	6.00 to 7.00
COc1cc(C(=O)NC2CN3CCC2CC3)cnc1-c1cc2nccc(-c3ccc(N4CCC(F)C4)c(C#N)c3)c2o1 (stereo not shown) [Compound 438, N-[1-azabicyclo[2.2.2]octan-3-yl]-6-[7-[3-cyano-4-(3-fluoropyrrolidin-1-yl)phenyl]furo[3,2-b]pyridin-2-yl]-5-methoxypyridine-3-carboxamide]	> 7.00	6.00 to 7.00	> 7.00	–
COc1cc(C(=O)NCC2(C)COC2)ccc1-c1cc2nccc(-c3ccc(OC4CCOCC4)c(C#N)c3)c2o1 [Compound 59, 4-{7-[3-Cyano-4-(tetrahydro-pyran-4-yloxy)-phenyl]-furo[3,2-b]pyridin-2-yl}-3-methoxy-N-(3-methyl-oxetan-3-ylmethyl)-benzamide]	> 7.00	6.00 to 7.00	> 7.00	–
COc1cc(C(=O)N(C)C)ccc1-c1cc2nccc(-c3ccc(OC4CCNC4)c(C#N)c3)c2o1 (stereo not shown) [Compound 108, 4-{7-[3-Cyano-4-(pyrrolidin-3-yloxy)-phenyl]-furo[3,2-b]pyridin-2-yl}-3-methoxy-N,N-dimethyl-benzamide]	> 7.00	> 7.00	> 7.00	–
CCC(CO)(CO)NC(=O)c1ccc(-c2cc3nccc(-c4ccc(OC5CCOCC5)c(C#N)c4)c3o2)c(OC)c1 [Compound 479, N-(1,1-Bis-hydroxymethyl-propyl)-4-{7-[3-cyano-4-(tetrahydro-pyran-4-yloxy)-phenyl]-furo[3,2-b]pyridin-2-yl}-3-methoxy-benzamide]	> 7.00	6.00 to 7.00	> 7.00	–
COc1cc(C(=O)N[C@H]2[C@@H]3C[C@H]2CN(C)C3)cnc1-c1cc2nccc(-c3ccc(OC4CCOCC4)c(C#N)c3)c2o1 [Compound 397, 6-{7-[3-Cyano-4-(tetrahydro-pyran-4-yloxy)-phenyl]-furo[3,2-b]pyridin-2-yl}-5-methoxy-N-((1S,5R,6R)-3-methyl-3-aza-bicyclo[3.10.1]hept-6-yl)-nicotinamide]	> 7.00	> 7.00	> 7.00	–
COc1cc(C(=O)N(C)C)ccc1-c1cc2nccc(-c3ccc(C(C)(C)N4CCOCC4)c(C#N)c3)c2o1 [Compound 291, 4-(7-[3-cyano-4-[2-(morpholin-4-yl)propan-2-yl]phenyl]furo[3,2-b]pyridin-2-yl)-3-methoxy-N,N-dimethylbenzamide hydrochloride]	–	< 5.30	–	–
COc1cc(C(=O)N(C)C)ccc1-c1cc2nccc(-c3cc(F)c(N(C)C4CCOCC4)c(C#N)c3)c2o1 [Compound 237, 4-(7-(3-cyano-5-fluoro-4-(methyl(tetrahydro-2H-pyran-4-yl)amino)phenyl)furo[3,2-b]pyridin-2-yl)-3-methoxy-N,N-dimethylbenzamide]	> 7.00	–	> 7.00	–
COc1cc(C(=O)N(C)C)ccc1-c1cc2nccc(-c3ccc(O[C@@H]4[C@H](C)COC[C@@H]4C)c(C#N)c3)c2o1 [Compound 233, 4-(7-(3-cyano-4-(3,5-dimethyl-tetrahydro-2H-pyran-4-yloxy)phenyl)furo[3,2-b]pyridin-2-yl)-3-methoxy-N,N-dimethylbenzamide]	> 7.00	–	> 7.00	–
